Among the test systems are 786-0; A498; ACHN; CCRF-CEM; HCC 2998; HCT-116; HOP-92; K562; KM12; LOX IMVI; M14; MCF7; MOLT-4; NCI/ADR-RES; OVCAR-3; RXF 393; SF-539; SN12C; U-251; UO-31.
Test in all cases: inhibition of tumour cell growth, NCI panel, 48 h

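Where inhibition never reached the appropriate level, the endpoint shown equals the highest concentration tested. Otherwise, values were interpolated linearly from a five-concentration, 48-hour dose response in 96-well plates. GI50 = concentration required for 50% inhibition of growth.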 Active and inactive are the calls of the source. No stated cut-off is given here; in the data, active = GI50 up to about 1.1 µM and inactive = higher.

Consider `CN(C)CCNC(=O)c1ccc(NCCCN(C)CCCNc2ccc3c(=O)n(CCN(C)C)c(=O)n4c5ccccc5c(=O)c2c34)c2c(O)c3ccccc3nc12`, for which the GI50 in the assay with 786-0 is < 0.01 µM (active); with A498, 0.0759 µM (active); with ACHN, < 0.01 µM (active); with CCRF-CEM, < 0.01 µM (active); in the assay with HCC 2998, < 0.01 µM (active); in the assay with HCT-116, < 0.01 µM (active). The GI50 with HOP-92 was 0.114 µM (active); in the assay with K562, 0.0324 µM (active); in the assay on KM12, < 0.01 µM (active); in the assay with LOX IMVI it was < 0.01 µM (active); with M14 it was 0.164 µM (active); in the assay on MCF7, < 0.01 µM (active). For the same compound, the GI50 with MOLT-4 was < 0.01 µM (active); with NCI/ADR-RES, 0.221 µM (active); in the assay with OVCAR-3, < 0.011 µM (active); in the assay on RXF 393, 0.075 µM (active); in the assay on SF-539, 0.138 µM (active); with SN12C, < 0.01 µM (active). In addition, the GI50 in the assay with U-251 and with UO-31 was < 0.01 µM (active) throughout.
As to `O=C1Nc2ccc(Br)cc2/C1=N/c1ccc(Cl)cc1`, the GI50 was 26.3 µM (inactive) with 786-0; > 100 µM (inactive) in the assay with A498; 13.4 µM (inactive) with ACHN; 11.6 µM (inactive) with CCRF-CEM; 19.1 µM (inactive) with HCC 2998; 14.3 µM (inactive) in the assay on HCT-116. Further, the GI50 in the assay with HOP-92 was 37.3 µM (inactive); with K562 it was 0.586 µM (active); with KM12, 4.55 µM (inactive); in the assay with LOX IMVI, 0.521 µM (active); in the assay with M14, 20.7 µM (inactive); in the assay on MCF7 it was 10.2 µM (inactive). The GI50 was 25.6 µM (inactive) in the assay on MOLT-4; 12.6 µM (inactive) in the assay with NCI/ADR-RES; 15.8 µM (inactive) in the assay with OVCAR-3; 18.5 µM (inactive) in the assay with RXF 393; 3.58 µM (inactive) in the assay with SF-539; 13 µM (inactive) in the assay with SN12C. For the same compound, the GI50 with U-251 is 23.8 µM (inactive); in the assay on UO-31, 13.5 µM (inactive).
In the case of `COc1cc2c(cc1OCCCC(=O)Nc1cc(C(=O)Nc3cc(C(=O)Nc4cc(C(=O)NCCCN(C)C)n(C)n4)n(C)n3)n(C)n1)N=CC1CCCN1C2=O` (stereo not given), the GI50 in the assay with 786-0 is 4.81 µM (inactive); with A498, 23 µM (inactive); in the assay on ACHN it was 13.2 µM (inactive); with CCRF-CEM it was 2.72 µM (inactive); with HCC 2998, 41.9 µM (inactive); in the assay on HCT-116, 60.8 µM (inactive). For the same compound, the GI50 in the assay on HOP-92 is 4.68 µM (inactive); in the assay with K562, 4.43 µM (inactive); in the assay with KM12, 21.1 µM (inactive); in the assay on LOX IMVI, 3.07 µM (inactive); in the assay on M14 it was 28 µM (inactive); with MCF7, 21.1 µM (inactive). Moreover, the GI50 is 3.01 µM (inactive) with MOLT-4; 31.8 µM (inactive) in the assay on NCI/ADR-RES; 29.9 µM (inactive) in the assay with OVCAR-3; 22.4 µM (inactive) with RXF 393; 26.2 µM (inactive) in the assay on SF-539; 21.1 µM (inactive) in the assay on SN12C. In addition, the GI50 in the assay on U-251 is 9.77 µM (inactive); in the assay on UO-31, 4.39 µM (inactive).

The record behind these values is ChEMBL document CHEMBL1201862, “PubChem BioAssay data set” (2004).
